# How the values were obtained:
# MRC5 cells = experiment: Cytotoxicity in normal cells, CCK8 analysis; assay type: cell-based; settings: 0.5-100 μM, 24 hours, CCK8, compared with the control group, FIG. 2
# Method: For confirmation of cytotoxicity in normal cells, MRC (i.e., normal lung cells) were cultured in an incubator set at 37° C. with 95% humidity and 5% CO2.
# Additionally, MRC5 cells were proliferated to a confluency of 70-80% on a plate using a growth medium (Minimum Essential Medium (MEM) supplemented with 10% fetal bovine serum (FBS), 100 U/ml of penicillin, and 100 μg/ml of streptomycin), and then used for the experiment.
# In order to confirm the cytotoxicity of the compound according to an embodiment of the present invention, CCK8 analysis was performed for the prepared MRC5 cells.
# First, after culturing MRC5 cells to 70-80% confluency in a 24-well plate, the test material was diluted in a culture medium except for the control group and treated with 0.5 μM, 2.5 μM, 10 μM, 20 μM, 40 μM, 80 μM, and 100 μM.
# After 24 hours of treatment of the test material, CCK8 solution was dispensed 10 μL per well and incubated for 2 hours in a state where the light was blocked.
# After 2 hours, 200 μL of the culture solution from each well was transferred to a 96 well plate and absorbance was measured at 450 nm.
# [1] = system: steatosis-induced Huh7 cells; experiment: Protein expression levels (western blot) for MOA confirmation in steatosis-induced liver cells; assay type: cell-based; settings: 250 μM PA, 0.25-40 μM compound, 24 hours, FIG. 1
# Method: An experiment to confirm the expression levels of proteins in steatosis-induced liver cells was conducted as follows.
# To determine the protein expression level for MOA confirmation in steatosis-induced liver cells BW-3290 of the present invention, Huh7 cells were cultured in an incubator set at 37° C., 95% humidity, and 5% CO2.
# Additionally, Huh7 cells were proliferated to a confluency of 80-90% on a plate using a growth medium (Dulbecco's modified Eagle's medium (DMEM) supplemented with 10% fetal bovine serum (FBS), 100 U/ml of penicillin, and 100 μg/ml of streptomycin), and then used for the experiment.
# To induce steatosis in Huh-7 cells in each well except for control cells, the Huh-7 cells were treated with PA bound to 2% BSA at a concentration of 250 μM except for the control, and the control cells were pretreated with 2% BSA without FA.
# The cells in each well were treated with the compounds of the present invention, R- or S-form of BW-3290, 0.25 μM, 0.5 μM, 1 μM, 5 μM, 10 μM, 20 μM, and 40 μM and then cultured for 24 hours. The control cells and PA treated cells were treated with DMSO. All media were aspirated and the cells were gently washed 3 times with cold PBS.
# A cold lysis buffer containing 150 mM sodium chloride (NaCl), 5 mM ethylenediaminetetraacetic acid (EDTA), pH 8.0, […] 4-(2-hydroxyethyl)-1-piperazineethanesulfonic acid (HEPES), 1% nonylphenoxypolyethoxylethanol (NP-40), 2 μg/mL aprotinin, 1 μM pepstatin A, 10 μM leupeptin, 1 mM sodium fluoride (NaF), 0.2 mM sodium orthovanadate ([…]), and 1 μM phenylmethylsulfonyl fluoride (PMSF) was added thereto.
# A whole cell lysate was collected and gently pipetted at least 10 times to ensure complete lysis. The sample was incubated on ice for 20 minutes and centrifuged 4° C. at 13,000 rpm, for 20 minutes. The supernatant was collected, 5× sodium dodecyl sulfate (SDS) sample buffer containing 50 mM Tris-CI (pH 6.8), 2% SDS, 0.1% bromopheol blue, and 10% glycerol was added to the sample, and boiled at 95° C. for 5 minutes.
# The wells of 10% SDS-polyacrylamide gel electrophoresis (SDS-PAGE) were loaded with the same amount of a protein along with the molecular weight marker. The gel was electrophoresed at 100 V for 30 minutes in an electrophoresis chamber (Bio-Rad Laboratories, Hercules, Calif., USA).
# A polyvinylidene fluoride (PVDF) membrane (MilliporeSigma, Burlington, Mass., USA) was activated with methanol (MeOH) for 1 minute and washed with a transfer buffer containing 25 mM Tris, 190 mM glycine, and 20% MeOH. The gel was placed in the transfer buffer for 10 minutes.
# The transfer sandwich (in the order of paper, gel, membrane, and paper) was assembled and it was checked whether no air bubbles were trapped in the transfer sandwich. The transfer sandwich was placed in a transfer tank (Bio-Rad Laboratories) and ice cubes were placed in the transfer tank to prevent the transfer buffer from being heated. The protein was transferred from the gel to the PVDF membrane at 100 V for 30 minutes.
# After washing the PVDF membrane with distilled water, the membrane was blocked for 1 hour at room temperature with a blocking buffer prepared by 5% skim milk (Difco Laboratories, Franklin Lakes, N.J., USA) in TBST containing 0.1% tween 20 (TBST, Sigma-Aldrich).
# The membrane was incubated in a buffer in which the primary antibody was appropriately diluted. The membrane of fatty acid synthase (FAS), phosphor-AMP-activated protein kinase (p-AMPK), SIRT1, and SIRT3 was washed 3 times with TBST for 5 minutes each.
# The membrane was incubated with a recommended dilution of horseradish peroxidase (HRP)-conjugated secondary mouse antibody in blocking buffer at room temperature for 1 hour.
# The membrane was washed 5 times with TBST for 5 minutes each. Excess reagent was removed and the membrane was covered with a clear plastic wrap.
# ECL prime western blotting detection reagent (GE Healthcare, Chicago, Ill., USA) was applied according to the manufacturer's recommendations. […]
SMILES,cytotoxicity in normal cells (MRC5 cells),SIRT1 protein expression level [1],SIRT3 protein expression level [1],level of FAS (fat synthesis protein) [1],p-AMPK protein expression level [1]
"CC(C)C(Nc1ncnc2nc[nH]c12)c1nc2cccc(Cl)c2c(=O)n1-c1ccccc1 (racemic) [RS-form, 2-(1-((7H-purin-6-yl)amino)-2-methylpropyl)-5-chloro-3-phenylquinazolin-4(3H)-one]",showed some toxicity,,,,
"CC(C)[C@@H](Nc1ncnc2nc[nH]c12)c1nc2cccc(Cl)c2c(=O)n1-c1ccccc1 [R-form of BW-3290, (R)-2-(1-((7H-purin-6-yl)amino)-2-methylpropyl)-5-chloro-3-phenylquinazolin-4(3H)-one]",did not show toxicity,increased,increased,decreased in a concentration-dependent manner,increased
"CC(C)[C@H](Nc1ncnc2nc[nH]c12)c1nc2cccc(Cl)c2c(=O)n1-c1ccccc1 [S-form, (S)-2-(1-((7H-purin-6-yl)amino)-2-methylpropyl)-5-chloro-3-phenylquinazolin-4(3H)-one]",showed some toxicity,increased,increased,,increased

# Source: US20230097253A1, “NOVEL QUINAZOLINE COMPOUND AS THERAPEUTIC AGENT FOR METABOLIC DISORDERS” (BIOWAY., INC, priority 2020, published 2023)
